Data as given in patent publication US9587471B2, “Controlling bioavailability of nutrient additions in subsurface formations” (E I DU PONT DE NEMOURS AND COMPANY, priority 2008, dated 2017).

How the values were obtained:
Type in all cases: cell-based
[1] = test system: Pseudomonas stutzeri strain LH4:15, ATCC PTA-8823; assay: Aerobic growth response (turbidity) to varying concentrations of potential microbial nutrients; settings: for concentration at which microbial growth was inhibited: aerobic growth at 30° C. On growth response (turbidity): key: − = no turbidity; + = slight turbidity; ++ = moderate to heavy turbidity.
Protocol: (§1) Typically cells were grown at a temperature in the range of about 25° C. to about 40° C. in an appropriate medium.
Additional potential microbial nutrients were added at various concentrations as outlined in Table 1. Growth was monitored visually with positive growth indicated by moderate to heavy turbidity.

[2] = test system: Pseudomonas stutzeri strain LH4:15 (ATCC PTA-8823); assay: Anaerobic growth and survival: biocidal versus biostatic inhibition; settings: for change in Log cell number: day 0 vs day 7, anaerobic; for Final anaerobic vial OD: starting OD600 = 0.05
Protocol: In this invention, the anaerobic growth and survival was tested in 20 ml crimp-capped anaerobic vials, using a complete nutrient medium of the following composition: Na2HPO4.7H2O, 1.4 g/L, KH2PO4, 0.69 g/L, NH4Cl, 0.5 g/L, MgSO4.7H2O, 0.1/L g, SL-10 trace metals, 10 ml, NaCl, 7.5 g/L, NaHCO3, 7.2 g/L, sodium nitrate, 12 g/L, Na lactate, 7 g/L, yeast extract, 10 mg/L, pH 7.3-7.8.
The anaerobic growth and survival was tested as outlined above. […] Vials were inoculated using an overnight aerobic culture of Pseudomonas stutzeri strain LH4:15 (ATCC PTA-8823) in Luria Bertani medium (LB, Mediatech Inc., Herndon, Va.,) at a final OD600 of 0.05. Within 2 hours of inoculation, serial dilutions from each treatment vial were made into aerobic LB medium to determine the cell numbers at Day 0. After approximately 24 hours cell numbers were estimated by noting the highest positive dilution based on the presence or absence of turbidity in dilutions of 10^−1 to 10^−11 in the serial dilution plates. Cell numbers on Day 0 and Day 7 were measured to obtain a survival estimate during inhibitor exposure.

[3] = test system: Pseudomonas stutzeri strain LH4:15 (ATCC PTA-8823); assay: Aerobic growth response (turbidity) to varying concentrations of industrial preservatives;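 further: single plus means slight turbidity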
Protocol: as §1
Pseudomonas stutzeri strain LH4:15 (ATCC PTA-8823) was grown as outlined in Example 1. Various preservatives commonly used in the food, cosmetic, and water treatment industries were tested for their inhibitory effect at various concentrations (Table 2). Growth was monitored visually and positive growth was indicated by moderate to heavy turbidity.

[4] = 10 g/L, 120 hours of incubation
[5] = 20 g/L, 120 hours of incubation
[6] = 50 g/L, 120 hours of incubation
[7] = 100 g/L, 24 hours of incubation
[8] = 100 g/L, 48 hours of incubation
[9] = 100 g/L, 120 hours of incubation
[10] = 200 g/L, 24 hours of incubation
[11] = 200 g/L, 48 hours of incubation
[12] = 200 g/L, 120 hours of incubation
[13] = 0.05 g/L, 24 hours of incubation
[14] = 0.05 g/L, 48 hours of incubation
[15] = 0.05 g/L, 120 hours of incubation
[16] = 0.5 g/L, 24 hours of incubation
[17] = 0.5 g/L, 48 hours of incubation
[18] = 0.5 g/L, 120 hours of incubation

## CC(O)C(=O)[O-].[Na+] (centres unmarked) [Na lactate, sodium lactate]
[1]; 10 g/L, 24 hours of incubation
  Growth response (turbidity): ++
[1]; 10 g/L, 48 hours of incubation
  Growth response (turbidity): ++
[1]; [4]
  Growth response (turbidity): ++
[1]; 20 g/L, 24 hours of incubation
  Growth response (turbidity): ++
[1]; 20 g/L, 48 hours of incubation
  Growth response (turbidity): ++
[1]; [5]
  Growth response (turbidity): ++
[1]; 50 g/L, 24 hours of incubation
  Growth response (turbidity): −
[1]; 50 g/L, 48 hours of incubation
  Growth response (turbidity): −
[1]; [6]
  Growth response (turbidity): −
[1]; [7]
  Growth response (turbidity): −
[1]; [8]
  Growth response (turbidity): −
[1]; [9]
  Growth response (turbidity): −
[1]; [10]
  Growth response (turbidity): −
[1]; [11]
  Growth response (turbidity): −
[1]; [12]
  Growth response (turbidity): −

## [Cl-].[Na+] [NaCl]
[2]; 50 g/L
  change in Log cell number: −1
  Final anaerobic vial OD: 0.08
[2]; 80 g/L
  change in Log cell number: −3
  Final anaerobic vial OD: 0.11
[2]; 100 g/L
  change in Log cell number: −1
  Final anaerobic vial OD: 0.05
[2]; 200 g/L
  change in Log cell number: −2
  Final anaerobic vial OD: 0.03
[2]; 400 g/L
  change in Log cell number: −4
  Final anaerobic vial OD: 0.03

## OCCO [Ethylene glycol]
[1]; 10 g/L, 24 hours of incubation
  Growth response (turbidity): ++
[1]; 10 g/L, 48 hours of incubation
  Growth response (turbidity): ++
[1]; [4]
  Growth response (turbidity): ++
[1]; 20 g/L, 24 hours of incubation
  Growth response (turbidity): ++
[1]; 20 g/L, 48 hours of incubation
  Growth response (turbidity): ++
[1]; [5]
  Growth response (turbidity): ++
[1]; 50 g/L, 24 hours of incubation
  Growth response (turbidity): ++
[1]; 50 g/L, 48 hours of incubation
  Growth response (turbidity): ++
[1]; [6]
  Growth response (turbidity): ++
[1]; [7]
  Growth response (turbidity): +
[1]; [8]
  Growth response (turbidity): ++
[1]; [9]
  Growth response (turbidity): ++
[1]; [10]
  Growth response (turbidity): −
[1]; [11]
  Growth response (turbidity): −
[1]; [12]
  Growth response (turbidity): −

## Cc1cc(O)ccc1Cl [4-chloro-3-metyhl phenol]
[3]; 0.1 g/L
  growth (turbidity): −
[3]; 0.5 g/L
  growth (turbidity): −
[3]; 1 g/L
  growth (turbidity): −

## CCCCCCCCCCCCN(C)C [N,N,-dimethyldodecylamine]
[3]; 0.0001 g/L
  growth (turbidity): ++
[3]; 0.001 g/L
  growth (turbidity): ++
[3]; 0.005 g/L
  growth (turbidity): ++
[3]; 0.01 g/L
  growth (turbidity): ++
[3]; 0.1 g/L
  growth (turbidity): −
[3]; 0.5 g/L
  growth (turbidity): −
[3]; 1 g/L
  growth (turbidity): −

## NC(N)=O [Urea]
[1]; 10 g/L, 24 hours of incubation
  Growth response (turbidity): ++
[1]; 10 g/L, 48 hours of incubation
  Growth response (turbidity): ++
[1]; [4]
  Growth response (turbidity): ++
[1]; 20 g/L, 24 hours of incubation
  Growth response (turbidity): ++
[1]; 20 g/L, 48 hours of incubation
  Growth response (turbidity): ++
[1]; [5]
  Growth response (turbidity): ++
[1]; 50 g/L, 24 hours of incubation
  Growth response (turbidity): −
[1]; 50 g/L, 48 hours of incubation
  Growth response (turbidity): −
[1]; [6]
  Growth response (turbidity): −
[1]; [7]
  Growth response (turbidity): −
[1]; [8]
  Growth response (turbidity): −
[1]; [9]
  Growth response (turbidity): −
[1]; [10]
  Growth response (turbidity): −
[1]; [11]
  Growth response (turbidity): −
[1]; [12]
  Growth response (turbidity): −
[1]
  concentration at which microbial growth was inhibited: ≥ 50 g/L
[2]; 20 g/L
  change in Log cell number: −1
  Final anaerobic vial OD: 0.2
[2]; 30 g/L
  change in Log cell number: −1
  Final anaerobic vial OD: 0.13
[2]; 50 g/L
  change in Log cell number: −1
  Final anaerobic vial OD: 0.03
[2]; 100 g/L
  change in Log cell number: −1
  Final anaerobic vial OD: 0.02
[2]; 200 g/L
  change in Log cell number: Dead
  Final anaerobic vial OD: 0.01
[2]; 300 g/L
  change in Log cell number: Dead
  Final anaerobic vial OD: 0.01

## O=S(=O)([O-])[O-].OC[P+](CO)(CO)CO.OC[P+](CO)(CO)CO [Bis(tetrakis(hydroxymethyl))phosphonium sulfate]
[3]; 0.1 g/L
  growth (turbidity): ++
[3]; 0.2 g/L
  growth (turbidity): ++
[3]; 0.3 g/L
  growth (turbidity): −
[3]; 0.4 g/L
  growth (turbidity): −

## OCC(O)CO [Glycerol]
[1]; 10 g/L, 24 hours of incubation
  Growth response (turbidity): ++
[1]; 10 g/L, 48 hours of incubation
  Growth response (turbidity): ++
[1]; [4]
  Growth response (turbidity): ++
[1]; 20 g/L, 24 hours of incubation
  Growth response (turbidity): ++
[1]; 20 g/L, 48 hours of incubation
  Growth response (turbidity): ++
[1]; [5]
  Growth response (turbidity): ++
[1]; 50 g/L, 24 hours of incubation
  Growth response (turbidity): ++
[1]; 50 g/L, 48 hours of incubation
  Growth response (turbidity): ++
[1]; [6]
  Growth response (turbidity): ++
[1]; [7]
  Growth response (turbidity): ++
[1]; [8]
  Growth response (turbidity): ++
[1]; [9]
  Growth response (turbidity): ++
[1]; [10]
  Growth response (turbidity): −
[1]; [11]
  Growth response (turbidity): −
[1]; [12]
  Growth response (turbidity): −

## CCO [Ethanol]
[1]; [13]
  Growth response (turbidity): ++
[1]; [14]
  Growth response (turbidity): ++
[1]; [15]
  Growth response (turbidity): ++
[1]; 0.1 g/L, 24 hours of incubation
  Growth response (turbidity): ++
[1]; 0.1 g/L, 48 hours of incubation
  Growth response (turbidity): ++
[1]; 0.1 g/L, 120 hours of incubation
  Growth response (turbidity): ++
[1]; [16]
  Growth response (turbidity): ++
[1]; [17]
  Growth response (turbidity): ++
[1]; [18]
  Growth response (turbidity): ++
[1]; 1 g/L, 24 hours of incubation
  Growth response (turbidity): ++
[1]; 1 g/L, 48 hours of incubation
  Growth response (turbidity): ++
[1]; 1 g/L, 120 hours of incubation
  Growth response (turbidity): ++
[1]; 10 g/L, 24 hours of incubation
  Growth response (turbidity): ++
[1]; 10 g/L, 48 hours of incubation
  Growth response (turbidity): ++
[1]; [4]
  Growth response (turbidity): ++
[1]; 20 g/L, 24 hours of incubation
  Growth response (turbidity): +
[1]; 20 g/L, 48 hours of incubation
  Growth response (turbidity): ++
[1]; [5]
  Growth response (turbidity): ++
[1]; 50 g/L, 24 hours of incubation
  Growth response (turbidity): −
[1]; 50 g/L, 48 hours of incubation
  Growth response (turbidity): −
[1]; [6]
  Growth response (turbidity): −

## CCCCCCCCO [Octanol]
[1]; 0.001 g/L, 24 hours of incubation
  Growth response (turbidity): ++
[1]; 0.001 g/L, 48 hours of incubation
  Growth response (turbidity): ++
[1]; 0.001 g/L, 120 hours of incubation
  Growth response (turbidity): ++
[1]; 0.005 g/L, 24 hours of incubation
  Growth response (turbidity): ++
[1]; 0.005 g/L, 48 hours of incubation
  Growth response (turbidity): ++
[1]; 0.005 g/L, 120 hours of incubation
  Growth response (turbidity): ++
[1]; 0.01 g/L, 24 hours of incubation
  Growth response (turbidity): ++
[1]; 0.01 g/L, 48 hours of incubation
  Growth response (turbidity): ++
[1]; 0.01 g/L, 120 hours of incubation
  Growth response (turbidity): ++
[1]; [13]
  Growth response (turbidity): ++
[1]; [14]
  Growth response (turbidity): ++
[1]; [15]
  Growth response (turbidity): ++
[1]; 0.25 g/L, 24 hours of incubation
  Growth response (turbidity): −
[1]; 0.25 g/L, 48 hours of incubation
  Growth response (turbidity): −
[1]; 0.25 g/L, 120 hours of incubation
  Growth response (turbidity): −
[1]; [16]
  Growth response (turbidity): −
[1]; [17]
  Growth response (turbidity): −
[1]; [18]
  Growth response (turbidity): −
[2]; 0.05 g/L
  change in Log cell number: 0
  Final anaerobic vial OD: 0.28
[2]; 0.1 g/L
  change in Log cell number: −1
  Final anaerobic vial OD: 0.4
[2]; 0.2 g/L
  change in Log cell number: 0
  Final anaerobic vial OD: 0.54
[2]; 0.25 g/L
  change in Log cell number: −1
  Final anaerobic vial OD: 0.4
[2]; 0.5 g/L
  change in Log cell number: −1
  Final anaerobic vial OD: 0.01
[2]; judged by OD600 and cell killing, Table 3
  effectiveness of the inhibitor in words: ineffective except at the highest concentrations

## O=[N+]([O-])[O-].[Na+] [NaNO3, sodium nitrate]
[1]; 10 g/L, 24 hours of incubation
  Growth response (turbidity): ++
[1]; 10 g/L, 48 hours of incubation
  Growth response (turbidity): ++
[1]; [4]
  Growth response (turbidity): ++
[1]; 20 g/L, 24 hours of incubation
  Growth response (turbidity): ++
[1]; 20 g/L, 48 hours of incubation
  Growth response (turbidity): ++
[1]; [5]
  Growth response (turbidity): ++
[1]; 50 g/L, 24 hours of incubation
  Growth response (turbidity): −
[1]; 50 g/L, 48 hours of incubation
  Growth response (turbidity): +
[1]; [6]
  Growth response (turbidity): ++
[1]; [7]
  Growth response (turbidity): −
[1]; [8]
  Growth response (turbidity): −
[1]; [9]
  Growth response (turbidity): −
[1]; [10]
  Growth response (turbidity): −
[1]; [11]
  Growth response (turbidity): −
[1]; [12]
  Growth response (turbidity): −
[1]
  concentration at which microbial growth was inhibited: ≥ 100 g/L
[2]; 50 g/L
  change in Log cell number: −1
  Final anaerobic vial OD: 0.06
[2]; 80 g/L
  change in Log cell number: 0
  Final anaerobic vial OD: 0.03
[2]; 100 g/L
  change in Log cell number: −2
  Final anaerobic vial OD: 0.02
[2]; 200 g/L
  change in Log cell number: −6
  Final anaerobic vial OD: 0.03
[2]; 400 g/L
  change in Log cell number: −5
  Final anaerobic vial OD: 0.03
